From patent publication US12660819B2, “Herbicidal derivatives” (SYNGENTA CROP PROTECTION AG, priority 2020, dated 2026)

Assays:
Assay type in all cases: in vivo
[1] = test system: Echinochloa crus-galli (ECHCG); test: Pre-emergence Test (glasshouse, percentage damage to the plant); conditions: 1000 g/ha unless otherwise stated, five-point scale
[2] = test system: Ipomoea hederacea (IPOHE); test: as above; conditions: 1000 g/ha unless otherwise stated, five-point scale
[3] = test system: Amaranthus retoflexus (AMARE); test: as above; conditions: 1000 g/ha unless otherwise stated, five-point scale
Zea mays (ZEAMX) [4] = test: as above; conditions: 1000 g/ha unless otherwise stated, five-point scale
[5] = test system: Ipomoea hederacea (IPOHE); test: Post-emergence Test (glasshouse, percentage damage to the plant); conditions: post-emergence spray, 1000 g/ha unless otherwise stated, evaluated after 13 days
Outline: (§1)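 Seeds sown in pots in glasshouse (24/16 °C day/night, 14 h light, 65% humidity), then sprayed with compound at 1000 g/ha unless stated, from acetone/water 50:50 with 0.5% Tween 20. Damage assessed 13 days later on five-point scale (1=0–20% to 5=81–100%).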

[6] = test system: Abutilon theophrasti (ABUTH); test: as above; conditions: post-emergence spray, 1000 g/ha unless otherwise stated, evaluated after 13 days
Outline: (§2)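 After sowing in standard soil, pots were kept at 24/16 °C (day/night), 14 h light and 65% humidity. They were sprayed at 1000 g/ha unless otherwise stated, watered twice daily, and assessed for percentage damage at 13 days on a 1–5 scale.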

Setaria faberi (SETFA) [7] = test: as above; conditions: post-emergence spray, 1000 g/ha unless otherwise stated, evaluated after 13 days
Outline: as §1

[8] = test system: Echinochloa crus-galli (ECHCG); test: as above; conditions: post-emergence spray, 1000 g/ha unless otherwise stated, evaluated after 13 days
Outline: as §2

Zea mays (ZEAMX) [9] = test: as above; conditions: post-emergence spray, 1000 g/ha unless otherwise stated, evaluated after 13 days
Outline: as §1

[10] = test system: Amaranthus retoflexus (AMARE); test: as above; conditions: post-emergence spray, 1000 g/ha unless otherwise stated, evaluated after 13 days
Outline: as §2

Setaria faberi (SETFA) [11] = test: Pre-emergence Test (glasshouse, percentage damage to the plant); conditions: 1000 g/ha unless otherwise stated, five-point scale
[12] = test system: Abutilon theophrasti (ABUTH); test: as above; conditions: 1000 g/ha unless otherwise stated, five-point scale

Compound | percentage damage to the plant, ECHCG [1] | percentage damage to the plant, IPOHE [2] | percentage damage to the plant, AMARE [3] | percentage damage to the plant, ZEAMX (Zea mays (ZEAMX) [4]) | Post-emergence Test IPOHE, percentage damage to the plant (five-point scale) [5] | Post-emergence Test ABUTH, percentage damage to the plant (five-point scale) [6] | Post-emergence Test SETFA, percentage damage to the plant (five-point scale) (Setaria faberi (SETFA) [7]) | Post-emergence Test ECHCG, percentage damage to the plant (five-point scale) [8] | Post-emergence Test ZEAMX, percentage damage to the plant (five-point scale) (Zea mays (ZEAMX) [9]) | Post-emergence Test AMARE, percentage damage to the plant (five-point scale) [10] | percentage damage to the plant, SETFA (Setaria faberi (SETFA) [11]) | percentage damage to the plant, ABUTH [12]
CCn1c(C)c(C2=CCCC2)c(=O)c(C(=O)O)c1-c1ccc(Cl)c(Cl)c1 [Compound 68, 5-(cyclopenten-1-yl)-2-(3,4-dichlorophenyl)-1-ethyl-6-methyl-4-oxo-pyridine-3-carboxylic acid] | 1 (1=0-20%) | 2 (2=21-40%) | 1 (1=0-20%) | 1 (1=0-20%) | 3 (3=41-60%) | 3 (3=41-60%) | 3 (3=41-60%) | 2 (2=21-40%) | 1 (1=0-20%) | 1 (1=0-20%) | 5 (5=81-100%) | 1 (1=0-20%)
CCn1c(C)c(-c2cccc(C(F)(F)F)c2)c(=O)c(C(=O)O)c1-c1ccc(Cl)c(Cl)n1 [Compound 150, 2-(5,6-dichloro-2-pyridyl)-1-ethyl-6-methyl-4-oxo-5-[3-(trifluoromethyl)phenyl] pyridine-3-carboxylic acid] | 0 | 0 | 0 | 1 (1=0-20%) | 2 (2=21-40%) | 0 | 1 (1=0-20%) | 1 (1=0-20%) | 1 (1=0-20%) | 0 | 0 | 0
CCn1c(C)c(-c2ccc(C(F)(F)F)nc2)c(=O)c(C(=O)O)c1-c1ccc(Cl)c(Cl)c1 [Compound 108, 2-(3,4-dichlorophenyl)-1-ethyl-6-methyl-4-oxo-5-[6-(trifluoromethyl)-3-pyridyl]pyridine-3-carboxylic acid] | 1 (1=0-20%) | 1 (1=0-20%) | 1 (1=0-20%) | 1 (1=0-20%) | 2 (2=21-40%) | 2 (2=21-40%) | 3 (3=41-60%) | 2 (2=21-40%) | 2 (2=21-40%) | 2 (2=21-40%) | 3 (3=41-60%) | 1 (1=0-20%)
CCn1c(C)c(-c2ccc(Cl)cc2F)c(=O)c(C(=O)O)c1-c1ccc(Cl)c(Cl)c1 [Compound 153, 5-(4-chloro-2-fluoro-phenyl)-2-(3,4-dichlorophenyl)-1-ethyl-6-methyl-4-oxo-pyridine-3-carboxylic acid] | 5 (5=81-100%) | 4 (4=61-80%) | 5 (5=81-100%) | 4 (4=61-80%) | 5 (5=81-100%) | 5 (5=81-100%) | 5 (5=81-100%) | 5 (5=81-100%) | 5 (5=81-100%) | 5 (5=81-100%) | 5 (5=81-100%) | 5 (5=81-100%)
CCn1c(C)c(-c2cccc(C(F)F)c2)c(=O)c(C(=O)O)c1-c1ccc(Cl)c(Cl)c1 [Compound 106, 2-(3,4-dichlorophenyl)-5-[3-(difluoromethyl)phenyl]-1-ethyl-6-methyl-4-oxo-pyridine-3-carboxylic acid] | 1 (1=0-20%) | 1 (1=0-20%) | 1 (1=0-20%) | 1 (1=0-20%) | 2 (2=21-40%) | 3 (3=41-60%) | 1 (1=0-20%) | 1 (1=0-20%) | 1 (1=0-20%) | 3 (3=41-60%) | 1 (1=0-20%) | 2 (2=21-40%)
CCn1c(C)c(-c2ccc(OC)c(C)c2)c(=O)c(C(=O)O)c1-c1ccc(Cl)c(Cl)c1 [Compound 100, 2-(3,4-dichlorophenyl)-1-ethyl-5-(4-methoxy-3-methyl-phenyl)-6-methyl-4-oxo-pyridine-3-carboxylic acid] | 1 (1=0-20%) | 1 (1=0-20%) | 1 (1=0-20%) | 1 (1=0-20%) | 1 (1=0-20%) | 3 (3=41-60%) | 3 (3=41-60%) | 1 (1=0-20%) | 3 (3=41-60%) | 2 (2=21-40%) | 4 (4=61-80%) | 1 (1=0-20%)
CCn1c(C)c(-c2cccc(C#N)c2)c(=O)c(C(=O)O)c1-c1ccc(Cl)c(Cl)n1 [Compound 147, 5-(3-cyanophenyl)-2-(5,6-dichloro-2-pyridyl)-1-ethyl-6-methyl-4-oxo-pyridine-3-carboxylic acid] | 0 | 0 | 0 | 0 | 2 (2=21-40%) | 2 (2=21-40%) | 2 (2=21-40%) | 2 (2=21-40%) | 2 (2=21-40%) | 0 | 0 | 0
CCn1c(C)c(-c2cccs2)c(=O)c(C(=O)O)c1-c1ccc(Cl)cc1 [Compound 165, 2-(4-chlorophenyl)-1-ethyl-6-methyl-4-oxo-5-(2-thienyl)pyridine-3-carboxylic acid] | 0 | 1 (1=0-20%) | 1 (1=0-20%) | 0 | 2 (2=21-40%) | 2 (2=21-40%) | 1 (1=0-20%) | 0 | 1 (1=0-20%) | 0 | 0 | 1 (1=0-20%)
